Reference: PMC6923382, “Small molecules that inhibit TNF signalling by stabilising an asymmetric form of the trimer” (Nature Communications, 2019)
Entries after “also recorded” stand apart in the source; their conditions may differ.

Tests used:
[1] = target: T1, TNF (L57F) (Homo sapiens, UniProt P01375, L133F); assay: HEK reporter gene assay, L57F TNF; assay type: cell-based; conditions: 10 pM L57F TNF; HEK NFκΒ reporter
T1 construct: Human TNF (CID2043, UniProt P01375 residues 77–233); 6XHis-Smt3 (N, cleaved yes); host or cells: E. coli
T1 sequence (P01375 77-233 L133F): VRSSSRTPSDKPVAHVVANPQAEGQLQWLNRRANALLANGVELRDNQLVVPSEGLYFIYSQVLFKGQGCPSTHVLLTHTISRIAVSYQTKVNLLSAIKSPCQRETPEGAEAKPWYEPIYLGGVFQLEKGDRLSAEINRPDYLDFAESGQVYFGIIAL
Protocol: Stimulation of HEK-293 cells by TNF leads to activation of the NF-κB pathway. The HEK-Blue^TM CD40L SEAP (secreted embryonic alkaline phosphatase) reporter cell line used to determine TNF activity (InvivoGen, #hkb-CD40, cells were described as mycoplasma free when purchased and were tested using Mycoalert [Lonza] after each batch of assay vial preparation). Compounds were titrated in DMSO and pre-incubated with TNF at a concentration giving half maximal response (10 pM for human or 20 pM for mouse) or the anti-human TNFR1 agonist antibody (R&D Systems. #AF 225) for 1 h. Cells were added to the compound/stimulus mixture and further incubated for 18 h. SEAP was measured using the colorimetric substrate HEK-Blue Detect^TM or QUANTI-Blue^TM from InvivoGen. Percentage inhibitions for compound dilutions were calculated between a DMSO control and maximum inhibition (by excess anti-TNF biologic, or NF-κB inhibitor–TPCA-1 [Tocris #2559, R&D Systems]). The IC50 was determined as the point of inflexion between the fitted minimum and maximum of the compound dose response curve, calculated using 4PL fitted curve. Mean IC50s are reported as a mean of at least two experiments. Dose response curves for TNF and the anti-human TNFR1 agonist antibody are shown in Supplementary Fig. 9. […]
In this assay reduction is luminescence is due to cell killing by TNF and inhibition causes increased luminescence. […]

[2] = target: T2, mouse TNF (Mus musculus, UniProt P06804); assay: TNF L929 cytotoxicity assay, mouse TNF; assay type: cell-based; conditions: for Luminescence units: Mouse TNF, L929
T2 construct: stabilise an asymmetrical form of the soluble TNF trimer
T2 sequence (P06804 80-235 limits assumed): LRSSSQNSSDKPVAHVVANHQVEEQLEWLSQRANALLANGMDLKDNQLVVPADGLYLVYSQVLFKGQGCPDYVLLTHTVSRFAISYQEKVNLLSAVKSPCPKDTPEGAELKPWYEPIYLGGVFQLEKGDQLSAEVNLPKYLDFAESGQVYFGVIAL
Protocol: TNF (human or mouse) kills L929 cells which have been compromised by incubation with a sub-lethal concentration of actinomycin D, and this effect is inhibited with TNF biologics. Compounds were titrated in DMSO, and then pre-incubated with human or mouse TNF for 1 h. L929 cells (ECACC, #85011425) in media containing actinomycin D (2 µg/mL) were added to the TNF inhibitor mixture and incubated for 18 h. L929 cytotoxicity was measured by the addition of CellTitreGlo (Promega). Luminescence was measured after an incubation of at least 20 min in the dark. Percentage inhibition was calculated between unstimulated wells (maximum signal), and wells with TNF, DMSO and actinomycin D (minimum signal). The IC50 was calculated as the point of inflexion for a 4PL fitted curve. Mean IC50s are reported as a mean of at least two experiments. Cells were described as mycoplasma-free when purchased and were tested using Mycoalert (Lonza) after each batch of assay vial preparation.

`Cc1ccc(C)c(Cn2c(C(O)c3ccncc3)nc3ccc(-c4cnn(C)c4)cc32)c1` (stereo not drawn) [UCB-9260] was tested, and the “inhibition of L57F TNF” value [1] was “did not inhibit; also recorded: no activity”, the Luminescence units ([2]; compound -logM 4.6) was 12797 Luminescence units and the Luminescence units ([2]; compound -logM 5.08) was 13525 Luminescence units. It also gave a Luminescence units ([2]; compound -logM 5.56) of 13101 Luminescence units, a Luminescence units ([2]; compound -logM 6.03) of 12546 Luminescence units and a Luminescence units ([2]; compound -logM 6.51) of 10886 Luminescence units. The Luminescence units ([2]; compound -logM 6.99) was 9129 Luminescence units, the Luminescence units ([2]; compound -logM 7.46) was 7403 Luminescence units and the Luminescence units ([2]; compound -logM 7.94) was 7468 Luminescence units. For the same compound, the Luminescence units ([2]; compound -logM 8.42) was 7718 Luminescence units, the Luminescence units ([2]; compound -logM 8.9) was 5980 Luminescence units and the IC50 ([2]; mouse TNF, mouse L929 cells + actinomycin D, read-out: geometric mean IC50, TNF-dependent cytotoxicity) was 120 nM.
